Data published in patent publication US20240350493A1 (Kadmon Corporation, LLC, priority 2022, published 2024).
Entries after “also recorded” stand apart in the source; their conditions may differ. Read-outs that look alike come from different tables or passages of the source. Marks after values point to notes of the source that are not given here.

Experiments:
[1] = food effect study, 5 × 100 mg capsules (KD025-105); assay type: in vivo, human; details: for AUC(0-t) / AUC(0-inf) / Cmax / Tmax / half-life: male, human, plasma, oral, 500 mg, 5 × 100 mg capsules; for Tmax: read-out: Tmax, median (range)
Description: Both studies were single-center, open-label, randomized, single dose crossover studies in healthy males.
Water was permitted ad libitum except for 1 hour pre-and post-dose.
In both studies, serial blood samples for PK analysis were collected at pre-dose and 1, 2, 4, 6, 8, 12, 16, 24, and 36 hours post-dose. An additional sample at 30 hours post-dose was collected in the first study; additional samples were collected 3, 5, and 48 hours post-dose in the second study. Blood samples (5-6 mL per sample) were collected in K3EDTA tubes on ice and were processed within 30 minutes of collection, then frozen at approximately-70 to −80° C. shortly after collection.
Sample preparation was performed by protein precipitation.
Statistical analyses were performed in SAS using the PROC MIXED procedure and the Restricted Maximum Likelihood estimation method. In both studies, the presence of a food effect was evaluated by a formal statistical analysis on natural log-transformed AUC and Cmax using mixed effect modeling techniques. The model included treatment, period, and sequence as fixed effects and subject nested within sequence as a random effect. Adjusted geometric mean ratios (GMRs) and their 90% confidence intervals (CIs) were calculated for fed (test) versus fasted (reference) treatments. The absence of a food effect was to be concluded if the 90% CI was within the bioequivalence limits of 80.00 to 125.00%.

[2] = phase I two-part drug-drug interaction study, plasma pharmacokinetics (Example 1); assay type: in vivo, human; details: for Cmax / Tmax / AUC from 0 to 24 h / AUC(0-inf) / AUC(0-t) / half-life: male, human, plasma, oral; for Tmax: read-out: Tmax, median (range)
Text: The secondary objective was to provide additional information on the safety and tolerability of this dose regimen in healthy males.
This was a single center, non-randomized, DDI study in 35 (Part 1) and 38 (Part 2) healthy males. The key inclusion criterion was males aged 18 to 55 years (inclusive). […] In Part 2, co-administration with omeprazole was studied. The study design is illustrated in FIG. 1.
At least a 2-to 8-day washout occurred between each period to account for a minimum of 5 half-lives of the active moieties dosed in the preceding period.
Blood samples were collected into 6 mL K,EDTA tubes and were processed within 30 minutes of collection. The resultant plasma was then frozen within 90 minutes of collection and stored at […] until shipment to the bioanalytical laboratory.
For each comparison, PK parameters were natural log transformed and analyzed using mixed effect modeling with treatment included as a fixed effect and subject as a random effect. Adjusted geometric mean ratios (GMRs) and corresponding 90% CIs were calculated.

[3] = 200 mg belumosudil single dose + itraconazole
[4] = 200 mg belumosudil single dose + rabeprazole
[5] = 200 mg belumosudil single dose + rifampicin
[6] = 200 mg belumosudil single dose alone
[7] = coadministration of rabeprazole

Question: With `CC(C)NC(=O)COc1cccc(-c2nc(Nc3ccc4[nH]ncc4c3)c3ccccc3n2)c1` [Belumosudil, 2-{3-[4-(1H-indazol-5-ylamino)-2-quinazolinyl]phenoxy}-N-(propan-2-yl) acetamide] as the compound, how does the “GMRs fed vs fasted for Cmax and AUC” value ([1]; 500 mg capsules) read?
Answer: above 125%

Question: And the AUC(0-t) ([1]; fasted, read-out: AUC0-24, arithmetic mean (SD))?
Answer: 7980 ng·h/mL

Question: What about the AUC(0-t) ([1]; fasted, read-out: AUC0-24, geometric mean (geometric CV %)) of the same compound?
Answer: 7600 ng·h/mL

Question: And the AUC(0-inf) ([1]; fasted, read-out: AUCinf, arithmetic mean (SD))?
Answer: 8700 ng·h/mL

Question: And the AUC(0-inf) ([1]; fasted, read-out: AUCinf, geometric mean (geometric CV %))?
Answer: 8310 ng·h/mL

Question: What about the AUC(0-t) ([1]; fasted, read-out: AUClast, arithmetic mean (SD)) of the same compound?
Answer: 8590 ng·h/mL

Question: And the AUC(0-t) ([1]; fasted, read-out: AUClast, geometric mean (geometric CV %))?
Answer: 8190 ng·h/mL

Question: And the Cmax ([1]; fasted, read-out: Cmax, arithmetic mean (SD))?
Answer: 1580 ng/mL

Question: What about the Cmax ([1]; fasted, read-out: Cmax, geometric mean (geometric CV %)) of the same compound?
Answer: 1500 ng/mL

Question: And the Tmax ([1]; fasted)?
Answer: 2 h

Question: What about the half-life ([1]; fasted, read-out: t1/2, arithmetic mean (SD) (converted)) of the same compound?
Answer: 9.5 h

Question: And the half-life ([1]; fasted, read-out: t1/2, geometric mean (geometric CV %) (converted))?
Answer: 9 h

Question: And the AUC(0-t) ([1]; fed, read-out: AUC0-24, arithmetic mean (SD))?
Answer: 25100 ng·h/mL

Question: And the AUC(0-t) ([1]; fed, read-out: AUC0-24, geometric mean (geometric CV %))?
Answer: 23300 ng·h/mL

Question: And the AUC(0-inf) ([1]; fed, read-out: AUCinf, arithmetic mean (SD))?
Answer: 26900 ng·h/mL

Question: What about the AUC(0-inf) ([1]; fed, read-out: AUCinf, geometric mean (geometric CV %)) of the same compound?
Answer: 25100 ng·h/mL

Question: And the AUC(0-t) ([1]; fed, read-out: AUClast, arithmetic mean (SD))?
Answer: 26200 ng·h/mL

Question: And the AUC(0-t) ([1]; fed, read-out: AUClast, geometric mean (geometric CV %))?
Answer: 24400 ng·h/mL

Question: And the Cmax ([1]; fed, read-out: Cmax, arithmetic mean (SD))?
Answer: 4280 ng/mL

Question: What about the Cmax ([1]; fed, read-out: Cmax, geometric mean (geometric CV %)) of the same compound?
Answer: 3780 ng/mL

Question: And the Tmax ([1]; fed)?
Answer: 4 h

Question: And the half-life ([1]; fed, read-out: t1/2, arithmetic mean (SD) (converted))?
Answer: 8 h

Question: And the half-life ([1]; fed, read-out: t1/2, geometric mean (geometric CV %) (converted))?
Answer: 7.9 h

Question: And the “CL/F, arithmetic mean (SD)” value [2, 3]?
Answer: 318 (117) ^b mL/min

Question: What about the “CL/F, geometric mean (geometric CV %)” value [2, 3] of the same compound?
Answer: 298 (38.1) ^b; mL/min

Question: And the “CL/F, arithmetic mean (SD)” value [2, 4]?
Answer: 2480 (2410) ^d mL/min

Question: And the “CL/F, geometric mean (geometric CV %)” value [2, 4]?
Answer: 1980 (65.8) ^d; mL/min

Question: What about the “CL/F, arithmetic mean (SD)” value [2, 5] of the same compound?
Answer: 1400 (450) ^c mL/min

Question: What about the “CL/F, geometric mean (geometric CV %)” value [2, 5] of the same compound?
Answer: 1330 (34.5) ^c; mL/min

Question: And the “CL/F, arithmetic mean (SD)” value [2, 6]?
Answer: 385 (116) ^a mL/min

Question: What about the “CL/F, geometric mean (geometric CV %)” value [2, 6] of the same compound?
Answer: 367 (33.3) ^a; mL/min

Question: What about the “change in belumosudil exposure” value ([2]; coadministration of itraconazole) of the same compound?
Answer: no clinically meaningful effect; also recorded: No clinically relevant change

Question: And the “decrease in AUC0-24 vs belumosudil alone” value ([2]; coadministration of omeprazole)?
Answer: 53%

Question: And the “decrease in AUC vs belumosudil alone” value ([2]; coadministration of omeprazole)?
Answer: 47%

Question: What about the “decrease in Cmax (first dose) vs belumosudil alone” value ([2]; coadministration of omeprazole) of the same compound?
Answer: 68%

Question: What about the “decrease in AUC vs belumosudil alone” value [2, 7] of the same compound?
Answer: 80%

Question: And the “decrease in AUCinf vs belumosudil alone” value [2, 7]?
Answer: ~80%

Question: And the “decrease in AUClast vs belumosudil alone” value [2, 7]?
Answer: ~82%

Question: And the “decrease in AUCinf vs belumosudil alone” value ([2]; coadministration of rifampicin)?
Answer: ~72%

Question: What about the “decrease in AUClast vs belumosudil alone” value ([2]; coadministration of rifampicin) of the same compound?
Answer: ~72%

Question: And the “decrease in AUC vs belumosudil alone” value ([2]; coadministration of rifampin)?
Answer: 72%

Question: What about the Cmax ([2]; 200 mg belumosudil BID + omeprazole, first dose, read-out: Cmax, arithmetic mean (SD)) of the same compound?
Answer: 893 ng/mL

Question: What about the Cmax ([2]; 200 mg belumosudil BID + omeprazole, first dose, read-out: Cmax, geometric mean (geometric CV %)) of the same compound?
Answer: 575 ng/mL

Question: What about the Tmax ([2]; 200 mg belumosudil BID + omeprazole, first dose) of the same compound?
Answer: 4 h

Question: What about the Cmax ([2]; 200 mg belumosudil BID + omeprazole, second dose, read-out: Cmax, arithmetic mean (SD)) of the same compound?
Answer: 1050 ng/mL

Question: And the Cmax ([2]; 200 mg belumosudil BID + omeprazole, second dose, read-out: Cmax, geometric mean (geometric CV %))?
Answer: 903 ng/mL

Question: What about the Tmax ([2]; 200 mg belumosudil BID + omeprazole, second dose) of the same compound?
Answer: 17 h

Question: What about the AUC from 0 to 24 h ([2]; 200 mg belumosudil BID + omeprazole, read-out: AUC0-24, arithmetic mean (SD)) of the same compound?
Answer: 9100 ng·h/mL

Question: And the AUC from 0 to 24 h ([2]; 200 mg belumosudil BID + omeprazole, read-out: AUC0-24, geometric mean (geometric CV %))?
Answer: 7970 ng·h/mL

Question: What about the AUC(0-inf) ([2]; 200 mg belumosudil BID + omeprazole, read-out: AUCinf, arithmetic mean (SD)) of the same compound?
Answer: 11200 ng·h/mL

Question: What about the AUC(0-inf) ([2]; 200 mg belumosudil BID + omeprazole, read-out: AUCinf, geometric mean (geometric CV %)) of the same compound?
Answer: 9880 ng·h/mL

Question: What about the AUC(0-t) ([2]; 200 mg belumosudil BID + omeprazole, read-out: AUClast, arithmetic mean (SD)) of the same compound?
Answer: 10900 ng·h/mL

Question: What about the AUC(0-t) ([2]; 200 mg belumosudil BID + omeprazole, read-out: AUClast, geometric mean (geometric CV %)) of the same compound?
Answer: 9680 ng·h/mL

Question: What about the half-life ([2]; 200 mg belumosudil BID + omeprazole, read-out: t1/2, arithmetic mean (SD) (converted)) of the same compound?
Answer: 6.55 h

Question: What about the half-life ([2]; 200 mg belumosudil BID + omeprazole, read-out: t1/2, geometric mean (geometric CV %) (converted)) of the same compound?
Answer: 6.16 h

Question: And the AUC from 0 to 24 h ([2]; 200 mg belumosudil single dose + itraconazole, read-out: AUC0-24, arithmetic mean (SD))?
Answer: 11000 ng·h/mL

Question: And the AUC from 0 to 24 h ([2]; 200 mg belumosudil single dose + itraconazole, read-out: AUC0-24, geometric mean (geometric CV %))?
Answer: 10400 ng·h/mL

Question: What about the AUC(0-inf) ([2]; 200 mg belumosudil single dose + itraconazole, read-out: AUCinf, arithmetic mean (SD)) of the same compound?
Answer: 11900 ng·h/mL
